Test [1] deals with Chlamydomonas reinhardtii cells. Description: fluorescence response of probe-loaded alga cells stimulated with Cu2+, PQ or MB under light or in the dark. In kind it is cell-based. To be noted: FIG. 1; for fluorescence increment (in words) / selectivity for Cu2+ plus light conditions over PQ and MB (in words) / fluorescence response of loaded cells (in words): probe 25 μM; for fluorescence increment (in words): Cu2+ and irradiation with light; for fluorescence response of loaded cells (in words): incubation under irradiation with light in the presence of Cu2+, 60 minutes. The source says:
Photic stimulation can cause oxidative stress in green algae. Stimulation with Cu^2+ causes intracellular generation of various ROS such as superoxides, hydrogen peroxide, and hydroxyl radicals. Furthermore, when alga cells are activated specifically by paraquat (PQ) or methylene blue (MB), oxidative stress can be caused by the generation of a superoxide or ^1O2. […] In order to load alga cells with the compounds 1a, 1b, and 1c, the derivatives 2a, 2b, and 2c (Scheme 3) as acetylated forms of the compounds 1a, 1b, and 1c were used.
More specifically, first, the compounds 2a, 2b, and 2c respectively were dissolved in DMSO, thus obtaining 10 mM stock solutions of the respective compounds. Next, Chlamydomonas reinhardtii (IAM C-238) cultured by an ordinary method was inoculated into 3 ml of an MBM culture solution. Thereafter, the MBM culture solution was loaded with 7.5 μl of each of the stock solutions of the compounds 2a, 2b, and 2c in the dark at 25° C. for 30 minutes. Thus, probe-loaded cell suspensions were prepared. Furthermore, a 96-well tissue culture plate was provided, and 50 μl of a MBM solution containing the indicated concentration of CuCl2, PQ, or […] was added to the plate. The probe-loaded cell suspension (50 μl) was inoculated to the plate and then incubated under irradiation with light or in the dark. After 60 minutes, fluorescence in the cells was measured using a fluorescence measuring device (trade name “CytoFluor II multiwell fluorescence plate reader”, PerSeptive Biosystems, USA). For the measurement, an excitation filter was set at 485±20 nm and an emission filter was set at 530±25 nm.
FIG. 1 contains graphs showing the correlation between a concentration and a fluorescence increment when the fluorescence response was measured by loading Chlamydomonas reinhardtii cells with the compound 2a, 2b, or 2c (25 μM) or DCFH-DA (50 μM) in the dark at 25° C. for 30 minutes and incubating them in 96-well microplates under irradiation with light or in the dark in the presence of Cu^2+, PQ, or MB for 60 minutes. In FIG. 1, an empty circle indicates the result obtained when the incubation was carried out under irradiation with light and a solid circle indicates the result obtained when the incubation was carried out in the dark.

Test [2] can be described thus: microplate assay of the acetylated forms as hydrogen peroxide-detecting probe (esterase requirement). The note with it: microplate assay similar to that of compounds 1.
The nature of test [3]: 96-well microplate assay, fluorescence response to H2O2. The note with it: for response to H2O2 (in words): 96-well microplate assay; for detection limit for H2O2: 150 μl probe solution, 25° C., 60 minutes, RSD n=8; for detection limit for H2O2 / Fluorescence Intensity (RFU), H2O2: HEPES pH 7.4; for Fluorescence Intensity (RFU), H2O2: value minus intensity in the absence of H2O2, probe 1a 25 μM, 1b and 1c 5 μM; for slope of the linear calibration curve: H2O2 calibration, detection limit to 92.3 nmol; for upper end of the linear calibration range: linear from the detection limit upward. The protocol:
In this assay, a DMSO solution of the compound 1a (10 mM), a DMSO solution of the compound 1b (2 mM), and a DMSO solution of the compound 1c (2 mM) were provided first and then these solutions were diluted 400-fold with a HEPES buffer solution (pH 7.4, 10 mM). Thus, probe solutions of the respective compounds were prepared. In the respective probe solutions, the concentration of the compound 1a was 25 μM, the concentration of the compound 1b was 5 μM, and the concentration of the compound 1c was 5 μM. Then, 150 μl of each of the probe solutions was allowed to react with H2O2 water (0.92 mM, 10 μl) at 25° C. for 60 minutes. The detection limits of the compounds 1a, 1b, and 1c were 46.0 (RSD, n=8; 1.2%), 23.1 (0.5%), and 4.6 (1.0%) pmol, respectively, which are all acceptable for cellular level detection. With regard to each of the compounds 1a, 1b, and 1c, a linear calibration curve with a correlation coefficient of at least 0.999 was obtained when the detected value was in the range from the detection limit to 92.3 nmol.
(§1) The fluorescence response to H2O2 achieved by each of the thus-obtained compounds 1a, 1b, and 1c was compared with that to HO. (a hydroxyl radical) and that to O2^−. (a superoxide). As a source of HO., the Fenton reaction between H2O2 (1 mM, 10 μl) and Fe^2+ (5 mM, 10 μl) was used. On the other hand, O2^−. was generated by causing an enzyme reaction between hypoxanthine (HPX) (1 mM, 10 μl) and xanthine oxidase (XO) (0.26 U/ml, 10 μl).
(§2) In Table 1, fluorescence responses observed after reacting the compounds 1a, 1b, and 1c with H2O2, HO., or O2^−. were compared with each other. Numbers in Table 1 represent the fluorescence intensity (RFU). Note here that the RFU is a value obtained by subtracting a fluorescence intensity obtained in the absence of H2O2 or HPX from the measured value.

The nature of test [4]: microplate assay, fluorescence response to HO. from the Fenton reaction (H2O2 + Fe2+). The note with it: for Fluorescence Intensity (RFU), H2O2 + Fe^2+: H2O2 (1 mM, 10 μl) + Fe2+ (5 mM, 10 μl) as HO. source, blank subtracted. The protocol:
as §1, §2

A short description of test [5]: microplate assay, fluorescence response in the HPX-XO system (O2-. source), with or without catalase or SOD. To be noted: for Fluorescence Intensity (RFU), HPX + XO + catalase: HPX + XO with catalase (5000 U/ml, 10 μl); for Fluorescence Intensity (RFU), HPX + XO + catalase / Fluorescence Intensity (RFU), HPX + XO + SOD: blank subtracted; for Fluorescence Intensity (RFU), HPX + XO + SOD: HPX + XO with superoxide dismutase (10 μl); for fluorescence response in the HPX-XO system on addition of catalase (in words): catalase 5000 U/ml; for fluorescence response in the HPX-XO system on addition of catalase (in words) / fluorescence response in the HPX-XO system in the presence of SOD (in words): 10 μl; for Fluorescence Intensity (RFU), HPX + XO: hypoxanthine (1 mM, 10 μl) + xanthine oxidase (0.26 U/ml, 10 μl), blank without HPX subtracted; for fluorescence response in the HPX-XO system in the presence of SOD (in words): superoxide dismutase. The protocol: as §1, §2

Consider `CC(=O)Oc1cc2c(cc1F)C1(OC(=O)c3ccccc31)c1cc(F)c(OS(=O)(=O)c3c(F)c(F)c(F)c(F)c3F)cc1O2` (stereo not drawn) [Compound 2c], for which, in test [1], the “fluorescence increment (in words)” value is reported as “great fluorescence increments”; the “selectivity for Cu2+ plus light conditions over PQ and MB (in words)” value is reported as “high selectivity”; the “fluorescence response of loaded cells (in words)” value is on record as “exhibited fluorescence response in a stimulation concentration-dependent manner”. In addition, the “requirement of esterase to serve as hydrogen peroxide-detecting probe (in words)” value (“requirement of esterase to serve” below) in test [2] is “esterase was necessary”.
Consider `CC(=O)Oc1cc2c(cc1Cl)C(c1ccccc1C(=O)O)c1cc(Cl)c(OC(C)=O)cc1O2` [DCFH-DA, reference compound], for which, in test [1] (DCFH-DA 50 μM), the “detection of ROS on Cu2+ stimulation (in words)” value is “detected ROS generated by the Cu^2+ stimulation”; the “detection of oxidative stress caused by PQ and MB (in words)” value is “detected the oxidative stress caused by PQ and MB effectively”.
For the compound `O=C(O)c1ccccc1-c1c2cc(Cl)c(=O)cc-2oc2cc(OS(=O)(=O)c3c(F)c(F)c(F)c(F)c3F)c(Cl)cc12` [Compound 1b], in test [3], the “response to H2O2 (in words)” value was “H2O2 concentration-dependent response”; the “detection limit for H2O2” value is 23.1 pmol; the “Fluorescence Intensity (RFU), H2O2” value was found to be 2193 RFU; the “slope of the linear calibration curve” value is recorded as 215 au/nmol. The “upper end of the linear calibration range” value (“upper end” below) in test [3] was determined as 92.3 nmol. For the same compound, in test [4], the “response to HO. compared with that to H2O2 (in words)” value (“response to HO. compared with that” for short) is listed as “much smaller than those to H2O2” and the “Fluorescence Intensity (RFU), H2O2 + Fe^2+” value turned out to be 195 RFU. For the same compound, in test [5], the “Fluorescence Intensity (RFU), HPX + XO + catalase” value is given as −51 RFU; the “Fluorescence Intensity (RFU), HPX + XO + SOD” value is recorded as 1733 RFU; the “fluorescence response in the HPX-XO system on addition of catalase (in words)” value (“fluorescence response … of catalase (in words)” for short) is “eliminated completely”; the “Fluorescence Intensity (RFU), HPX + XO” value was determined as 1733 RFU. Further, the “fluorescence response in the HPX-XO system in the presence of SOD (in words)” value (“fluorescence response … of SOD (in words)” for short) in test [5] was “maintained or increased”.
For the compound `CC(=O)Oc1ccc2c(c1)Oc1cc(OS(=O)(=O)c3c(F)c(F)c(F)c(F)c3F)ccc1C21OC(=O)c2ccccc21` (stereo not drawn) [Compound 2a], in test [1], the “fluorescence increment (in words)” value was “great fluorescence increments”; the “selectivity for Cu2+ plus light conditions over PQ and MB (in words)” value is reported as “high selectivity”; the “fluorescence response of loaded cells (in words)” value is “exhibited fluorescence response in a stimulation concentration-dependent manner”. Also, the “requirement of esterase to serve” value in test [2] is recorded as “esterase was necessary”.
Take `O=C(O)c1ccccc1-c1c2ccc(=O)cc-2oc2cc(OS(=O)(=O)c3c(F)c(F)c(F)c(F)c3F)ccc12` [Compound 1a]: in test [3], the “response to H2O2 (in words)” value is given as “H2O2 concentration-dependent response”; the “detection limit for H2O2” value came to 46.0 pmol; the “Fluorescence Intensity (RFU), H2O2” value is listed as 1150 RFU; the “slope of the linear calibration curve” value stood at 172 au/nmol. Besides, the “upper end” value in test [3] is reported as 92.3 nmol. In test [4], the “response to HO. compared with that” value is “much smaller than those to H2O2” and the “Fluorescence Intensity (RFU), H2O2 + Fe^2+” value came out at 28 RFU. In test [5], the “Fluorescence Intensity (RFU), HPX + XO + catalase” value is recorded as −49 RFU; the “Fluorescence Intensity (RFU), HPX + XO + SOD” value was 899 RFU; the “fluorescence response … of catalase (in words)” value is recorded as “eliminated completely”; the “Fluorescence Intensity (RFU), HPX + XO” value worked out at 566 RFU. Further, the “fluorescence response … of SOD (in words)” value in test [5] is “maintained or increased”.
For `CC(=O)Oc1cc2c(cc1Cl)C1(OC(=O)c3ccccc31)c1cc(Cl)c(OS(=O)(=O)c3c(F)c(F)c(F)c(F)c3F)cc1O2` (stereo not drawn) [Compound 2b], the “fluorescence response of loaded cells (in words)” value in test [1] is “exhibited fluorescence response in a stimulation concentration-dependent manner”. Further, the “requirement of esterase to serve” value in test [2] is “esterase was necessary”.
Take `O=C(O)c1ccccc1-c1c2cc(F)c(=O)cc-2oc2cc(OS(=O)(=O)c3c(F)c(F)c(F)c(F)c3F)c(F)cc12` [Compound 1c]: in test [3], the “response to H2O2 (in words)” value is “H2O2 concentration-dependent response”; the “detection limit for H2O2” value was found to be 4.6 pmol; the “Fluorescence Intensity (RFU), H2O2” value is 4375 RFU; the “slope of the linear calibration curve” value was found to be 591 au/nmol. For the same compound, the “upper end” value in test [3] was 92.3 nmol. Further, in test [4], the “response to HO. compared with that” value is given as “much smaller than those to H2O2” and the “Fluorescence Intensity (RFU), H2O2 + Fe^2+” value is given as 184 RFU. In test [5], the “Fluorescence Intensity (RFU), HPX + XO + catalase” value is given as −44 RFU; the “Fluorescence Intensity (RFU), HPX + XO + SOD” value was determined as 3340 RFU; the “fluorescence response … of catalase (in words)” value is “eliminated completely”; the “Fluorescence Intensity (RFU), HPX + XO” value turned out to be 3580 RFU. The “fluorescence response … of SOD (in words)” value in test [5] is given as “maintained or increased”.

Values taken from patent publication US7491832B2, “Sulfonate compound and fluorescent probe using the same” (Osaka Industrial Promotion Organization, priority 2003, dated 2009).
